Values after ≈ are worked out from the molar mass of the structure shown.
What was measured:
[1] = system: vancomycin-resistant enterococci; test: broth micro-dilution, mean geometric MIC; assay type: cell-based, Enterococcus faecium and Enterococcus faecalis; details: enterococci, 24-hour incubation
[2] = system: Haemophilus influenzae RD; test: broth micro-dilution MIC; assay type: cell-based; details: Haemophilus influenzae RD
Procedure: (§1) The formula I compounds have in vitro and in vivo activity against Gram-positive pathogenic bacteria. The MIC's were determined using a standard broth micro-dilution assay.

[3] = system: Staphylococcus haemolyticus 105; test: broth micro-dilution MIC; assay type: cell-based
Procedure: as §1

[4] = system: Streptococcus pneumoniae P1; test: broth micro-dilution MIC; assay type: cell-based
Procedure: as §1

Entercoccus faecium 2041 = test: broth micro-dilution MIC; assay type: cell-based; details: Entercoccus faecium 2041
Procedure: as §1

[5] = system: Staphylococcus epidermidis 270; test: broth micro-dilution MIC; assay type: cell-based
Procedure: as §1

[6] = system: Staphylococcus aureus S13E; assay type: cell-based
Procedure: (§2) The MIC's were determined using a standard broth micro-dilution assay.

Streptococcus pneumoniae = test: mouse protection, experimentally-induced infection; assay type: in vivo; details: mice infected with Streptococcus pneumoniae, two doses
Streptococcus pyogenes = test: mouse protection, experimentally-induced infection; assay type: in vivo; details: mice infected with Streptococcus pyogenes, two doses
[7] = system: vancomycin-susceptible enterococci; test: broth micro-dilution, mean geometric MIC; assay type: cell-based, Enterococcus faecium and Enterococcus faecalis; details: enterococci, 24-hour incubation
Entercoccus faecium 276 = test: broth micro-dilution MIC; assay type: cell-based
Procedure: as §2

[8] = system: Streptococcus pyogenes C203; test: broth micro-dilution MIC; assay type: cell-based
Procedure: as §2

[9] = system: Staphylococcus aureus 447; test: broth micro-dilution MIC; assay type: cell-based
Procedure: as §2

[10] = system: Staphylococcus aureus 491; test: broth micro-dilution MIC; assay type: cell-based
Procedure: as §2

[11] = system: Staphylococcus aureus X778; test: broth micro-dilution MIC; assay type: cell-based
Procedure: as §2

[12] = system: Enterococcus gallinarum 245; test: broth micro-dilution MIC; assay type: cell-based; details: Enterococcus gallinarum 245
Procedure: as §1

Entercoccus faecium 180 = test: broth micro-dilution MIC; assay type: cell-based; details: Entercoccus faecium 180
Procedure: as §1

[13] = system: Staphylococcus haemolyticus 415; test: broth micro-dilution MIC; assay type: cell-based
Procedure: as §1

[14] = system: Staphylococcus aureus X400; test: broth micro-dilution MIC; assay type: cell-based
Procedure: as §2

[15] = system: Staphylococcus aureus SA1199A; test: broth micro-dilution MIC; assay type: cell-based
Procedure: as §2

[16] = system: Entercoccus faecium 180-1; test: broth micro-dilution MIC; assay type: cell-based
Procedure: as §2

[17] = system: Staphylococcus aureus SA1199B; assay type: cell-based
Procedure: as §2

[18] = system: Staphylococcus aureus 489; test: broth micro-dilution MIC; assay type: cell-based
Procedure: as §2

[19] = system: Staphylococcus aureus SA1199; test: broth micro-dilution MIC; assay type: cell-based
Procedure: as §2

[20] = system: Staphylococcus aureus 446; test: broth micro-dilution MIC; assay type: cell-based
Procedure: as §2

| Compound | mean geometric MIC, Vancomycin Resistant Strains [1] [µg/mL] | MIC [2] [µg/mL] | MIC [3] [µg/mL] | MIC [4] [µg/mL] | MIC (Entercoccus faecium 2041) [µg/mL] | MIC [5] [µg/mL] | MIC [6] [µg/mL] | ED50 (Streptococcus pneumoniae) [mg/kg/2] | ED50 (Streptococcus pyogenes) [mg/kg/2] | mean geometric MIC, Vancomycin Sensitive Strains [7] [µg/mL] | MIC (Entercoccus faecium 276) [µg/mL] | MIC [8] [µg/mL] | MIC [9] [µg/mL] | MIC [10] [µg/mL] | MIC [11] [µg/mL] | MIC [12] [µg/mL] | MIC (Entercoccus faecium 180) [µg/mL] | MIC [13] [µg/mL] | MIC [14] [µg/mL] | MIC [15] [µg/mL] | other results |
| --- | --- | --- | --- | --- | --- | --- | --- | --- | --- | --- | --- | --- | --- | --- | --- | --- | --- | --- | --- | --- | --- |
| C=CCCCCCCCCCNC1(C)CC(OC2C(Oc3c4cc5cc3Oc3ccc(cc3Cl)C(OC3CC(C)(N)C(O)C(C)O3)C3NC(=O)C(NC(=O)C5NC(=O)C(CC(N)=O)NC(=O)C(NC(=O)C(CC(C)C)NC)C(O)c5ccc(c(Cl)c5)O4)c4ccc(O)c(c4)-c4c(O)cc(O)cc4C(C(=O)O)NC3=O)OC(CO)C(O)C2O)OC(C)C1O (stereo not shown) [Compound 204] | 0.71 | 2 (≈ 1.15 µM) | 0.5 (≈ 0.287 µM) | ≤ 0.06 | ≤ 0.06 | ≤ 0.06 | 0.5 (≈ 0.287 µM) | 0.046 | < 0.031 | 0.031 | ≤ 0.06 | ≤ 0.06 | ≤ 0.06 | 0.5 (≈ 0.287 µM) | 0.5 (≈ 0.287 µM) |  |  |  |  |  |  |
| CNC(CC(C)C)C(=O)NC1C(=O)NC(CC(N)=O)C(=O)NC2C(=O)NC3C(=O)NC(C(=O)NC(C(=O)O)c4cc(O)cc(O)c4-c4cc3ccc4O)C(OC3CC(C)(N)C(O)C(C)O3)c3ccc(c(Cl)c3)Oc3cc2cc(c3OC2OC(CO)C(O)C(O)C2OC2CC(C)(NCc3ccc(-c4ccc(Br)cc4)cc3)C(O)C(C)O2)Oc2ccc(cc2Cl)C1O (stereo not shown) [Compound 230] | 0.35 | 32 (≈ 17.4 µM) | 1 (≈ 0.544 µM) | ≤ 0.06 | ≤ 0.06 | 0.5 (≈ 0.272 µM) | 0.5 (≈ 0.272 µM) | 0.078 | 0.046 | 0.031 | ≤ 0.06 | ≤ 0.06 | 0.5 (≈ 0.272 µM) |  |  | 4 (≈ 2.18 µM) | ≤ 0.06 | 2 (≈ 1.09 µM) | 0.5 (≈ 0.272 µM) | ≤ 0.06 | MIC [16]: ≤ 0.06 µg/mL |
| CNC(CC(C)C)C(=O)NC1C(=O)NC(CC(N)=O)C(=O)NC2C(=O)NC3C(=O)NC(C(=O)NC(C(=O)O)c4cc(O)cc(O)c4-c4cc3ccc4O)C(OC3CC(C)(N)C(O)C(C)O3)c3ccc(c(Cl)c3)Oc3cc2cc(c3OC2OC(CO)C(O)C(O)C2OC2CC(C)(NCc3ccc(Oc4cccc(Cl)c4)c([N+](=O)[O-])c3)C(O)C(C)O2)Oc2ccc(cc2Cl)C1O (stereo not shown) [Compound 87] | 0.71 |  | 1 (≈ 0.539 µM) | ≤ 0.06 | ≤ 0.06 | 1 (≈ 0.539 µM) | 0.5 (≈ 0.27 µM) | 0.027 | 0.054 | 0.047 | ≤ 0.06 | ≤ 0.06 | 0.5 (≈ 0.27 µM) | 2 (≈ 1.08 µM) | 2 (≈ 1.08 µM) | 2 (≈ 1.08 µM) | ≤ 0.06 | 2 (≈ 1.08 µM) | 1 (≈ 0.539 µM) | ≤ 0.06 | MIC [17]: 0.5 µg/mL (≈ 0.27 µM); MIC [18]: 0.5 µg/mL (≈ 0.27 µM); MIC [19]: 2 µg/mL (≈ 1.08 µM); MIC [20]: 1 µg/mL (≈ 0.539 µM); MIC [16]: ≤ 0.06 µg/mL |

— patent publication US5840684A, “Glycopeptide antibiotic derivatives” (Eli Lilly and Company, priority 1995, dated 1998)
